# US8841309B2, “Substituted pyrazines and their use in the treatment of disease” (Boehringer Ingelheim International GmbH, priority 2012, dated 2014)
# Target: T1, ENaC (Mus musculus, UniProt Q61180+Q9WU38+Q9WU39)
# T1 construct: Mouse kidney M-1 cells were cultivated in DMEM containing 5% FCS and 5 μM dexamethasone; endogenous in cells; host or cells: mouse kidney M-1 cells
# T1 sequence (Q61180 1-699): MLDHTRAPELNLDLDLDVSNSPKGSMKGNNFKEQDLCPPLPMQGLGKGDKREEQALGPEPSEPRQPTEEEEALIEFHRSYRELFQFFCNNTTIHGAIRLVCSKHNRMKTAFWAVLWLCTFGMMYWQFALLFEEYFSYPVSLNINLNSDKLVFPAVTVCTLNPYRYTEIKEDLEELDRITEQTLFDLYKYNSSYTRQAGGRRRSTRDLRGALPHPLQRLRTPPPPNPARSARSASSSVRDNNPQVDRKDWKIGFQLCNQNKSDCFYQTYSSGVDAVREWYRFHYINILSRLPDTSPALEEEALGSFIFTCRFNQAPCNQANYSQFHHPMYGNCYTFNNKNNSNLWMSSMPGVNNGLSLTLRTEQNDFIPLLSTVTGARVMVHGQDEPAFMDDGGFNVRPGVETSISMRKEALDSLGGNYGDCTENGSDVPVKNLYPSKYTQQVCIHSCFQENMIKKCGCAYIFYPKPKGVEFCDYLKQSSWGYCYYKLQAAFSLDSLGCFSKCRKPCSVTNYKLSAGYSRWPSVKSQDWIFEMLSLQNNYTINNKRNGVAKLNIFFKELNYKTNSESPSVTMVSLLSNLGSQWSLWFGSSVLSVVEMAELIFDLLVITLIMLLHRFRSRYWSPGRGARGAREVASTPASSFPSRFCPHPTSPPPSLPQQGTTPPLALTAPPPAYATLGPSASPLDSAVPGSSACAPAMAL
# T1 sequence (Q9WU38 1-638): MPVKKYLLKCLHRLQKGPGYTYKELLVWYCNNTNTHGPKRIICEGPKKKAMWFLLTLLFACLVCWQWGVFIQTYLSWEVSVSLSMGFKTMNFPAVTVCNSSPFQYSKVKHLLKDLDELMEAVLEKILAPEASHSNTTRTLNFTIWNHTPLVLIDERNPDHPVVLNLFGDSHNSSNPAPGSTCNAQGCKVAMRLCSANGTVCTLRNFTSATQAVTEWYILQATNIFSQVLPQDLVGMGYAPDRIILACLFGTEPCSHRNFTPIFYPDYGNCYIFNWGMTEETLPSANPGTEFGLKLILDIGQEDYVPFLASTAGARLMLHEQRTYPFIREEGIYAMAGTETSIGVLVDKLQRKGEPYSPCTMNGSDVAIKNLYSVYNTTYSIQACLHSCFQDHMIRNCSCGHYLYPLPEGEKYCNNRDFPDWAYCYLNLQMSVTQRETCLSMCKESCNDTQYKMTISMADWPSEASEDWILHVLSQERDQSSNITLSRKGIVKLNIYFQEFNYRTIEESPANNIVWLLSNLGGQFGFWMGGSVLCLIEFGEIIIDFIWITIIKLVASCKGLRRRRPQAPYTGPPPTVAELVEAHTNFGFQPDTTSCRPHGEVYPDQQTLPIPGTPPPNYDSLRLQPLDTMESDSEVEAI
# T1 sequence (Q9WU39 1-655): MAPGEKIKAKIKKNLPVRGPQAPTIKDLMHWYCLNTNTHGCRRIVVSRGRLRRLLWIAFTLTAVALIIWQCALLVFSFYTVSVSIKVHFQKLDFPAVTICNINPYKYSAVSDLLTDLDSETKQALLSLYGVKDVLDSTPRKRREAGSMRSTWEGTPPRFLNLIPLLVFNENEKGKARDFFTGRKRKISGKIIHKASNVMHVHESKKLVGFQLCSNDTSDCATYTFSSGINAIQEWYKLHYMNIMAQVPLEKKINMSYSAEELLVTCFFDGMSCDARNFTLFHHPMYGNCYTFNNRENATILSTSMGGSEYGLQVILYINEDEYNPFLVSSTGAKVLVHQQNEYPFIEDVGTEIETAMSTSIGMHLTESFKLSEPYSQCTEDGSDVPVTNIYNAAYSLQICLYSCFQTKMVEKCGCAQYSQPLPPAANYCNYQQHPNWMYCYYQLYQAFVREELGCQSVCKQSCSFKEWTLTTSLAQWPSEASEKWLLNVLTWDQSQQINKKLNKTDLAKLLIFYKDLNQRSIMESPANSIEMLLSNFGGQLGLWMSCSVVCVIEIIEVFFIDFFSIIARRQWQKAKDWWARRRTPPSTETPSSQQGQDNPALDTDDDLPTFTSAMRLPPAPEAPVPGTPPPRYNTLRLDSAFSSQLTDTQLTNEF
# Test: Ussing chamber: short circuit current (I_sc) in mouse kidney M-1 cells, amiloride-sensitive
# Assay type: cell-based
# Details: compound applied to apical solution, 37° C.
# Procedure: Ussing Chamber: Mouse kidney M-1 cells were cultivated in DMEM containing 5% FCS and 5 μM dexamethasone for 10 to 12 days on polyester transwell filters. Filters were inserted into a teflon-coated well-plate which fit into the in-house ussing chamber system. Prior to measurement the medium of M-1 cells was replaced with Caco-2 transport buffer (Invitrogen, Germany). During measurements, the Ussing chamber temperature was kept at 37° C. Short circuit currents (I_sc) were measured in the voltage-clamp mode using an in-house built amplifier (Boehringer Ingelheim, Biberach) with the software package Lab View for data acquisition and analysis. The transepithelial electrical resistance (TEER) was determined by the application of voltage steps of ±5 mV every 5 sec. Compounds were administered at a final concentration of 3 μM or at increasing concentrations (1-3-10 μM) to the apical solution. At the end of each experiment the amiloride sensitive I_SC was measured by adding 3 μM amiloride to the apical compartment. Results are expressed as inhibition in percent of the amiloride effect or as IC50.
row,SMILES,IC50
1,C[N+]1(CC(=O)Nc2cccc(F)c2)CCC[C@H](NC(N)=NC(=O)c2nc(Cl)c(N)nc2N)C1 (mixture of isomers) [Example 70.4],31 nM
2,C[N+]1(CC(=O)NCc2ccc(Cl)cc2)CCC[C@@H](N/C(N)=N/C(=O)c2nc(Cl)c(N)nc2N)C1 (mixture of isomers) [Example 70.5],45 nM
3,CCNC(=O)C[N+]1(C)CCC[C@H](N/C(N)=N/C(=O)c2nc(Cl)c(N)nc2N)C1 (mixture of isomers) [Example 70.6],46 nM
4,C[N+]1(CC(=O)NCc2ccc(Cl)cc2)CCC[C@H](N/C(N)=N/C(=O)c2nc(Cl)c(N)nc2N)C1 (mixture of isomers) [Example 71.1],30.6 nM
5,"C[N+]1(Cc2ccccc2)CCC[C@H](N/C(N)=N/C(=O)c2nc(Cl)c(N)nc2N)C1 (stereo in doubt) [Example 71, (S)-1-Benzyl-3-[N′-(3,5-diamino-6-chloro-pyrazine-2-carbonyl)-guanidino]-1-methyl-piperidinium chloride]",81 nM
6,"COC(=O)c1cccc(C[N+]2(C)CCC[C@H](N/C(N)=N/C(=O)c3nc(Cl)c(N)nc3N)C2)c1 (stereo in doubt) [Example 72, (S)-3-[N′-(3,5-Diamino-6-chloro-pyrazine-2-carbonyl)-guanidino]-1-(3-methoxycarbonyl-benzyl)-1-methyl-piperidinium chloride]",122 nM
7,"N/C(=N\C(=O)c1nc(Cl)c(N)nc1N)NC1C[N+]2(CC(=O)O)CCC1CC2 (stereo not shown) [Example 1, 1-Carboxymethyl-3-[N′-(3,5-diamino-6-chloro-pyrazine-2-carbonyl)-guanidino]-1-azoniabicyclo[2.2.2]octane bromide]",468 nM
8,"COc1cc(C[N+]23CCC(CC2)C(N/C(N)=N/C(=O)c2nc(Cl)c(N)nc2N)C3)cc(OC)c1OC (stereo not shown) [Example 2, 3-[N′-(3,5-Diamino-6-chloro-pyrazine-2-carbonyl)-guanidino]-1-(3,4,5-trimethoxybenzyl)-1-azoniabicyclo[2.2.2]octane chloride]",126 nM
9,"N/C(=N\C(=O)c1nc(Cl)c(N)nc1N)NC1C[N+]2(CC(=O)Nc3ccccc3)CCC1CC2 (stereo not shown) [Example 3, 3-[N′-(3,5-Diamino-6-chloro-pyrazine-2-carbonyl)-guanidino]-1-phenylcarbamoylmethyl-1-azoniabicyclo[2.2.2]octane chloride]",26 nM
10,"N/C(=N\C(=O)c1nc(Cl)c(N)nc1N)NC1C[N+]2(Cc3ccccc3)CCC1CC2 (stereo not shown) [Example 4, 1-Benzyl-3-[N′-(3,5-diamino-6-chloro-pyrazine-2-carbonyl)-guanidino]-1-azoniabicyclo[2.2.2]octane bromide]",43 nM
11,"N/C(=N\C(=O)c1nc(Cl)c(N)nc1N)N[C@H]1C[N+]2(Cc3ccccc3)CCC1CC2 [Example 5, (R)-1-Benzyl-3-[N′-(3,5-diamino-6-chloro-pyrazine-2-carbonyl)-guanidino]-1-azoniabicyclo[2.2.2]octane bromide]",460 nM
12,"N/C(=N\C(=O)c1nc(Cl)c(N)nc1N)N[C@@H]1C[N+]2(Cc3ccccc3)CCC1CC2 [Example 6, (S)-1-Benzyl-3-[N′-(3,5-diamino-6-chloro-pyrazine-2-carbonyl)-guanidino]-1-azoniabicyclo[2.2.2]octane bromide]",28 nM
13,"N/C(=N\C(=O)c1nc(Br)c(N)nc1N)N[C@@H]1C[N+]2(Cc3ccccc3)CCC1CC2 [Example 6.1, (S)-1-Benzyl-3-[N′-(3,5-diamino-6-bromo-pyrazine-2-carbonyl)-guanidino]-1-azoniabicyclo[2.2.2]octane bromide]",29 nM
14,"COc1ccc(C[N+]23CCC(CC2)[C@H](N/C(N)=N/C(=O)c2nc(Cl)c(N)nc2N)C3)cc1 [Example 7, (S)-3-[N′(3,5-Diamino-6-chloro-pyrazine-2-carbonyl)-guanidino]-1-(4-methoxybenzyl)-1-azoniabicyclo[2.2.2]octane chloride]",20 nM
15,"CC(C)(C)c1ccc(C[N+]23CCC(CC2)[C@H](N/C(N)=N/C(=O)c2nc(Cl)c(N)nc2N)C3)cc1 [Example 8, (S)-1-(4-tert-Butyl-benzyl)-3-[N′-(3,5-diamino-6-chloro-pyrazine-2-carbonyl)-guanidino]-1-azoniabicyclo[2.2.2]octane chloride]",41 nM
16,NC(=NC(=O)c1nc(Cl)c(N)nc1N)N[C@@H]1C[N+]2(Cc3cccc(SC(F)(F)F)c3)CCC1CC2 [Example 9],3 nM
17,NC(=NC(=O)c1nc(Cl)c(N)nc1N)N[C@@H]1C[N+]2(Cc3ccccc3SC(F)(F)F)CCC1CC2 [Example 10],60 nM
18,"N/C(=N\C(=O)c1nc(Cl)c(N)nc1N)N[C@@H]1C[N+]2(Cc3ccc4ccccc4n3)CCC1CC2 [Example 11, (S)-3-[N′-(3,5-Diamino-6-chloro-pyrazine-2-carbonyl)-guanidino]-1-quinolin-2-ylmethyl-1-azoniabicyclo[2.2.2]octane chloride]",29 nM
19,"N/C(=N\C(=O)c1nc(Cl)c(N)nc1N)N[C@@H]1C[N+]2(Cc3ccc(C(F)(F)F)nc3)CCC1CC2 [Example 12, (S)-3-[N′-(3,5-Diamino-6-chloro-pyrazine-2-carbonyl)-guanidino]-1-(6-trifluoromethyl-pyridin-3-ylmethyl)-1-azonia-bicyclo[2.2.2]octane chloride]",63 nM
20,"N/C(=N\C(=O)c1nc(Cl)c(N)nc1N)N[C@@H]1C[N+]2(Cc3ccccn3)CCC1CC2 [Example 13, (S)-3-[N′-(3,5-Diamino-6-chloro-pyrazine-2-carbonyl)-guanidino]-1-pyridin-2-ylmethyl-1-azoniabicyclo[2.2.2]octane chloride]",90 nM
21,"N/C(=N\C(=O)c1nc(Cl)c(N)nc1N)N[C@@H]1C[N+]2(Cc3ccc(F)cc3)CCC1CC2 [Example 14, (S)-3-[N′-(3,5-Diamino-6-chloro-pyrazine-2-carbonyl)-guanidino]-1-(4-fluoro-benzyl)-1-azoniabicyclo[2.2.2]octane chloride]",28 nM
22,NC(=NC(=O)c1nc(Cl)c(N)nc1N)N[C@@H]1C[N+]2(Cc3ccc(Cl)cc3)CCC1CC2 [Example 15],18 nM
23,COc1cccc(C[N+]23CCC(CC2)[C@H](NC(N)=NC(=O)c2nc(Cl)c(N)nc2N)C3)c1 [Example 16],14 nM
24,NC(=NC(=O)c1nc(Cl)c(N)nc1N)N[C@@H]1C[N+]2(Cc3ccc(CO)cc3)CCC1CC2 [Example 17],52 nM
25,NC(=NC(=O)c1nc(Cl)c(N)nc1N)N[C@@H]1C[N+]2(Cc3ccc(C(F)(F)F)cc3)CCC1CC2 [Example 18],43 nM
